Results published in patent US7919579B2, “Imaging and therapeutic targeting of prostate and bladder tissues” (The Board of Regents of the University of Texas System, priority 2006, dated 2011).
One block for each molecule: values may come before it. No end group written: not given here. *: point of attachment. FITC = O=C1OC2(c3ccc(O)cc3Oc3cc(O)ccc32)c2ccc(NC(=S)*)cc21

What was measured:
[1] = test system: R11 uptake by bladder cancer cells; experiment: inhibitor and GAG competition of R11 uptake in bladder cancer cells; format: cell-based, human; conditions: for competition of R11 uptake by GAGs: various concentrations of GAG with 5 μM R11, 30 min
Experimental: FIGS. 10A-C—Determination of primary interaction molecule for R11 uptake in several bladder cancer cells. Human bladder cancer cells were pre-treated with various inhibitors (FIG. 10A: EIPA; FIG. 10B: Toxin B) 2 h and then incubated with 5 μM CPPs for 30 min before harvesting cell for determining cellular uptake. For competition assay, various concentrations of GAG's and 5 μM R9, R11, or R13 were added into cells for 30 min before harvesting cell for determining cellular uptake (FIG. 10C). Relative uptake was determined based on control (=1).
In order to define R11 as a bladder-specific molecular probe, it is critical to unveil the mechanism of R11 uptake. […] Furthermore, they examined a variety of glycosaminoglycans (GAGs) commonly detected in bladder wall (De Klerk, 1985) for their abilities to block the R11 uptake.

[2] = test system: PCa cells (LNCaP, C4-2, LAPC4 and PC3); experiment: uptake of FITC-tagged CPPs by PCa cells (fluorometer); format: cell-based; conditions: four PCa cells; 30 minutes
Experimental: Cell culture and peptide incubation. All PCa cell lines (LNCaP, C4-2, LAPC4 and PC3) were maintained as described previously (Zhou et al., 2005). To determine the peptide uptake, 1×10^5 cells per well were plated in a 12-well plate. Next day, the culture medium was replaced with RPMI medium supplemented with 0.5% FBS (Invitrogen, Carlsbad, Calif.) containing different concentrations fluorescence (FITC)-tagged peptides and incubation was carried out at the indicated time. For determining cellular location of peptide, cells were cultured overnight in slide chamber at a density of 25×10^4/cm^2. The FITC tagged peptides were incubated for 30 minutes in the presence of RPMI medium supplemented with 0.5% of FBS prior to fluorescence microscopy.
Fluorescence intensity determination and Fluorescence microscopy.
Screening of the most efficient CPP uptake by prostate cancer (PCa) cell lines. To deliver small peptide into target cells, CPP was employed as a delivery system. Five different CPPs were synthesized including TAT (amino acid 49-57), Penetratin (Antennapedia 43-58) (PENE), KALA peptide, poly-arginine (R11) and poly-lysine (K11). All the CPPs were incorporated with a FITC-labeled glycine at their N-terminal ends. […] To determine the uptake quantitatively, fluorometer was used to measure the intensity of each CPP per cell basis. To rule out the possible artifacts such as CPP only associated with the cell surface and the pH variation from different organelles, cells were trypsinized and washed extensively with PBS, and a buffer with neutral pH was used in this experiment. […] In general, the uptake efficiency of five different CPPs tested can be considered as R11>>KALA≧TAT≧PENE≧K11 among four PCa cells.

C4-2 cells = experiment: cell growth assay (MTT), serum or DHT-induced proliferation; format: cell-based; conditions: 5 μM peptide, 5% FBS or 10 nM DHT, MTT 4 days
Experimental: (§1) FIGS. 3A-B—Inhibitory effect of R11PPL on serum and androgen-induced cell proliferation of PCa. LNCaP (FIG. 3A) or C4-2 cells (FIG. 3B) were incubated with 5 μM R11PPL, R11AAL or without peptide 3 hours before adding serum or DHT (10 nM) and relative cell number was determined by MTT assay. All the experiments were carried out in quadruplicates and repeated at least twice. Each column represents mean±SD in triplicate.
(§2) Cell growth assay and cell cycle analysis. Cells were plated in 96-well plate at a density of 10^3 per well in T-medium supplemented with 5% charcoal-stripped FBS for overnight. Cells were incubated with or without indicated peptides (5 μM) for 3 hours in the presence of T-medium supplemented with 0.5% charcoal-stripped FBS. Subsequently, cells were replaced with T-medium containing either 5% FBS or 10 nM dihydrotestosterone (DHT). The peptides were changed every 2 days. The cell proliferation was determined 4 days after the initial peptide treatment by using 3-(4,5-dimethylthiazol-2-yl)-2,5-diphenyltetrazolium bromide (MTT) assay (Roche, Indianapolis, Ind.).

LNCaP [3] = experiment: as above; format: cell-based; conditions: 5 μM peptide, 5% FBS or 10 nM DHT, MTT 4 days
Experimental: as §1, §2

[4] = test system: interaction of Grb2 with SOS; experiment: in vitro pull down assay, GST-Grb2 (SH3) binding of SOS; conditions: C4-2 cell lysate after EGF; peptide 10, 30, 100 μM
Experimental: (§3) FIGS. 4A-B—Mechanism of action of R11PPL in PCa cells. To determine the function of R11PPL (SEQ ID NO:11) on interaction of Grb2 with SOS, the C4-2 cell lysates were collected after treated with EGF (FIG. 4A). The GST fusion protein with SH3 domain of Grb2 was used for the pull-down assay. The same amount of immobilized GST-Grb2 (SH3) protein (IB:αGST) was incubated with equal amount of cell lysate in addition of no peptide, the increasing amount of control R11AAL (SEQ ID NO:10) or R11PPL (SEQ ID NO:11) peptide as indicated. The binding of SOS was analyzed with Western Blot using SOS1 antibody. DOC-2/DAB2 expression plasmid transfection was used as a positive control. To examine the effect of R11PPL on MAP kinase activity (FIG. 4B), C4-2 cells were incubated with 5 μM R11PPL, R11AAL or R11 (SEQ ID NO:6) peptide 3 hours before adding EGF (10 ng/ml) (top panel) or 5% FBS (bottom panel). Cell lysates were subjected to western blot analysis probed with phosphorylated Erk1 and 2 antibody (αpErk1/2) or total Erk2 antibody (αErk2) used as a loading control. Each experiment has been repeated twice; this graph represents the typical result.
In vitro pull down assay. […] The increasing concentrations of peptide (10, 30, 100 μM) for R11PPL or R11AAL were also added during the incubation. […]

[5] = test system: MAP kinase (Erk2) activation; experiment: Western blot of phosphorylated Erk1/2 in C4-2 cells; format: cell-based
Experimental: as §3
Western blot analysis. Cells were plated in 6-well plates (2×10^5 per well) with T medium containing 5% FBS. […] The protein intensity was detected using an enhanced chemiluminescence detection kit (Amersham, Piscataway, N.J.). […]

[6] = parameters: species or system nude mice; conditions: in vivo
Experimental: FIGS. 9A-C—Comparison of delivery efficiency between different length of polyarginines. (FIG. 9A) In vitro uptake by bladder cancer cell lines 30 min after incubation. Relative uptake was determined by fluorometer and normalized using R11 5 μM (=1) in each cell line. (FIG. 9B) Animal study (n=3; 24 h post injection). The peptides (5 nmole/gram body weight) were administered via intravenous (IV) route. SV: seminal vesicle; CG: coagulation gland. (FIG. 9C) The tissue localization of FITC-R11 in mouse bladder.
Although the cellular uptake mechanism of CPPs is not completely understood, they were not supposed to have cell specificity. Also, the efficiency of CPPs delivery varies among different species and length. For example, Mai et al. (2002) has reported that the 8-mer and 10-mer of polylysine have higher cell permeable efficiency for a broad range of cell types than polyarginine does. However, the inventors observed that polyarginine is more efficiency than polylysine in bladder cancer cells (FIG. 9A). In order to further determine whether R11 is the best polyarginine for bladder cancer cells, the inventors examined the uptake efficiency using different lengths of polyarginine.

LNCaP [7] = conditions: human, 5 μM
Experimental: (§4) The fluorescence-labeled CPPs (TAT, Penetratin (PENE), KALA, R11 & K11) were synthesized and tested in a variety of PCa cells (LNCaP, C4-2, LAPC4 and PC3 cells). […] Different concentrations of each CPP were incubated with cells for 30 minutes prior to cell harvesting. Relative FITC intensity was determined by normalizing fluorescence intensity of each treatment with its cell numbers. […] R11 (5 μM) was incubated with cells at the indicated time. Relative FITC intensity was determined by normalizing fluorescence intensity of each treatment with its cell numbers. […] Cells were pulsed with R11 (5 μM) chased for the indicated time and the percentage of uptake was used time zero (=100%). Each column or data point represents mean±SD in triplicate. […]
(§5) Therefore, the dynamics of R11 uptake was evaluated by incubating cells with 5 μM R11 for 5, 10 and 30 minutes. […]
(§6) To determine the uptake efficiency of each CPP, different concentrations (0.1, 1, 5 μM) of FITC-tagged peptides were incubated with cells for 30 minutes (or different time for the time course study) then cells were washed twice with PBS and trypsinized. After washing with PBS twice, the total cell number was determined and cells were lysed in Tris Buffer (50 mM Tris-HCl, pH 7.5, 150 mM NaCl, 5 mM EDTA, 1% Triton X100). The fluorescence intensity was examined by fluorometer (excitation 490-500 nm; emission 515-525 nm). […]

C4-2 = conditions: human, 5 μM
Experimental: as §4, §5, §6

LAPC4 = conditions: human, 5 μM
Experimental: as §4, §5, §6

PC3 = conditions: human, 5 μM
Experimental: as §4, §5, §6

[8] = test system: lung metastasis of T24 bladder cancer; conditions: mouse, in vivo
Experimental: Top right panel, athymic nude mice were chosen based on a similar size of lung metastasis of bladder cancer from BLI were IV injected with 5 nmole FITC-R11 (left) or FITC (right) per gram body weight. Twenty-four hours after injection, whole body imaging (top left panel) or ex vivo imaging (bottom middle and right panel) of lung was carried out with Maestro In-vivo Imaging System (CRI, Inc.). The image shown is one of the representative experiments.

in vitro = conditions: human
Experimental: as §4, §5, §6

Molecule: pentosan sulfate
competition of R11 uptake by GAGs [1]: effectively compete the uptake of R11

Molecule: dextran sulfate
competition of R11 uptake by GAGs [1]: effectively compete the uptake of R11

Molecule: protamine sulfate
competition of R11 uptake by GAGs [1]: effectively compete the uptake of R11

Molecule: CCN(c1nc(N)c(C(=O)NC(=N)N)nc1Cl)C(C)C [EIPA]
effect of inhibitor on R11 uptake ([1]; pre-treated 2 h, then 5 μM CPPs 30 min): effectively diminish R11 uptake

interaction between Grb2 and SOS [4]: dose-dependent inhibitory effect
Molecule: ^FITC-G-RRRRRRRRRRR-GGG-FQLRQPPLVPSRKGE ({FITC}-GRRRRRRRRRRRGGGFQLRQPPLVPSRKGE) [R11PPL, FITC-R11 conjugated with PPL (DOC-2/DAB2 PR domain) at C-terminus]
uptake of R11, R11AAL and R11PPL compared [2]: very similar | serum or DHT-induced cell proliferation (C4-2 cells): suppressed | serum or DHT-induced cell proliferation (LNCaP [3]): suppressed | serum-induced activation of Erk2 ([5]; 5 μM peptide 3 hours before 5% FBS): suppressed | EGF induced activation of Erk2 ([5]; 5 μM peptide 3 hours before EGF 10 ng/ml): could suppress

Molecule: ^FITC-G- RRRRRRRRRRR -GG-FQLRQAALVASRKGE [R11AAL]
uptake of R11, R11AAL and R11PPL compared [2]: very similar | serum or DHT-induced cell proliferation (C4-2 cells): did not exhibit any effect | serum or DHT-induced cell proliferation (LNCaP [3]): did not exhibit any effect

Molecule: ^FITC-G-RKKRRQRRR (N-terminal FITC-Gly) [TAT, CPP derived from HIV TAT amino acid 49-57, FITC-labeled]
uptake efficiency among five CPPs (rank) [2]: R11>>KALA≧TAT≧PENE≧K11

half-life of R11 (LNCaP [7]): 23.4 h | half-life of R11 (C4-2): 24.1 h | half-life of R11 (LAPC4): 22.8 h | half-life of R11 (PC3): 24.0 h | half-life at 5 μM (in vitro): 23 to 24 h
Molecule: N=C(N)NCCC[C@H](NC(=O)[C@H](CCCNC(=N)N)NC(=O)[C@H](CCCNC(=N)N)NC(=O)[C@H](CCCNC(=N)N)NC(=O)[C@H](CCCNC(=N)N)NC(=O)[C@H](CCCNC(=N)N)NC(=O)[C@H](CCCNC(=N)N)NC(=O)[C@H](CCCNC(=N)N)NC(=O)[C@H](CCCNC(=N)N)NC(=O)[C@H](CCCNC(=N)N)NC(=O)[C@H](CCCNC(=N)N)NC(=O)CNC(=S)Nc1ccc2c(c1)C(=O)OC21c2ccc(O)cc2Oc2cc(O)ccc21)C(=O)O [R11, ^FITC-G-R11]
tissue localization in mouse bladder (histologic examination) [6]: presence of R11 in both transitional and stromal cell compartments of bladder | ex vivo fluorescence signal of lung tumor lesion [8]: clear fluorescence signal is visualized in the ex vivo tumor lesion

Molecule: ^FITC-G-KLALKLALKALKAALKLA ({FITC}-GKLALKLALKALKAALKLA) [KALA, KALA peptide, FITC-labeled]
uptake efficiency among five CPPs (rank) [2]: R11>>KALA≧TAT≧PENE≧K11

interaction between Grb2 and SOS [4]: inhibited
B1: DOC-2/DAB2: native protein, expression plasmid transfection used as a positive control in pull-down (protein, UniProt P98082 2-770, looked up)
Disabled homolog 2: SNEVETSATNGQPDQQAAPKAPSKKEKKKGPEKTDEYLLARFKGDGVKYKAKLIGIDDVPDARGDKMSQDSMMKLKGMAAAGRSQGQHKQRIWVNISLSGIKIIDEKTGVIEHEHPVNKISFIARDVTDNRAFGYVCGGEGQHQFFAIKTGQQAEPLVVDLKDLFQVIYNVKKKEEEKKKIEEASKAVENGSEALMILDDQTNKLKSGVDQMDLFGDMSTPPDLNSPTESKDILLVDLNSEIDTNQNSLRENPFLTNGITSCSLPRPTPQASFLPENAFSANLNFFPTPNPDPFRDDPFTQPDQSTPSSFDSLKSPDQKKENSSSSSTPLSNGPLNGDVDYFGQQFDQISNRTGKQEAQAGPWPFSSSQTQPAVRTQNGVSEREQNGFSVKSSPNPFVGSPPKGLSIQNGVKQDLESSVQSSPHDSIAIIPPPQSTKPGRGRRTAKSSANDLLASDIFAPPVSEPSGQASPTGQPTALQPNPLDLFKTSAPAPVGPLVGLGGVTVTLPQAGPWNTASLVFNQSPSMAPGAMMGGQPSGFSQPVIFGTSPAVSGWNQPSPFAASTPPPVPVVWGPSASVAPNAWSTTSPLGNPFQSNIFPAPAVSTQPPSMHSSLLVTPPQPPPRAGPPKDISSDAFTALDPLGDKEIKDVKEMFKDFQLRQPPAVPARKGEQTSSGTLSAFASYFNSKVGIPQENADHDDFDANQLLNKINEPPKPAPRQVSLPVTKSTDNAFENPFFKDSFGSSQASVASSQPVSSEMYRDPFGNPFA
